From article PMC11091976, “Shorter Peptide Nucleic Acid Probes Improve Affibody-Mediated Peptide Nucleic Acid-Based Pretargeting” (ACS Pharmacology & Translational Science, 2024) come the findings set out here.

For one data set, the system named is SKOV-3 xenografts. Nature of the data set: Biodistribution with preinjection of primary agent (pretargeting). The arrangement: species or system BALB/C nu/nu mice. Conditions: mouse, in vivo. From the text: Biodistribution measurements of all radiolabeled PNA-based probes indicated rapid clearance from the blood as well as from other organs and tissues, which is a crucial requirement for the success of in vivo pretargeting strategies.
Animal studies were planned in agreement with EU Directive 2010/63/EU for animal experiments and Swedish national legislation concerning the protection of laboratory animals and were approved by the Ethics Committee for Animal Research in Uppsala, Sweden (animal permission C4/16). HER2-positive xenografts were implanted by subcutaneous injection of 10^7 SKOV-3 cells in the right hind legs of female BALB/C nu/nu mice. Three weeks after implantation, mice were randomized into 8 groups, with 4 mice in each group. At the time of the experiment, the average animal weight was 20 ± 1 g. The average tumor weight was 0.26 ± 0.14 g. The mice were euthanized at predetermined time points by overdose of Ketamine/Xylazine anesthesia, followed by heart puncture. The organs of interest such as blood, lung, liver, spleen, kidney, muscle, bone, and tumor were collected, weighed, and subsequently their radioactivity was measured. Organs and tumor uptake were calculated as the percentage of the injected dose per gram of the sample (%ID/g). […]

The test system of a further data set is Z-HP9. The data set can be described thus: Multicycle kinetic SPR, immobilized Z-HP9. Conditions: MCK SPR. It counts as binding. The protocol:
(§1) We utilized SPR on a Biacore T200 instrument (Cytiva) to examine how secondary PNA probes (6-mer HP19, 7-mer HP21, 8-mer HP20, and 9-mer HP16) bind to primary agents. These experiments were conducted using dextran-coated CM5 sensor chips and PBS-T buffer at pH 7.4. The ligands were immobilized through a standard EDC/NHS coupling method, and the chip surface was sealed with ethanolamine. A reference surface with no primary agent was also included.
Association and dissociation times were set at 700 and 1800 s, respectively, with regeneration accomplished through a 30 s injection of 10 mM glycine-HCl, pH 1.5.
(§2) All SPR experiments were performed in duplicate, and data analysis was conducted using the Biacore T200 Evaluation software version 2.0 with a 1:1 binding model.

The target in another data set is Z-HP15. Nature of the data set: SPR off-rate screening (single-cycle kinetics), immobilized Z-HP15. It counts as binding. As to conditions: primary probe HP15 (immobilized Z-HP15), 25 °C, PBS-T pH 7.4, 120 nM HP16/HP20 or 362 nM HP21/HP19, dissociation 150 min, 1:1 model, duplicates. The protocol: The stability of new pretargeting probe combinations was assessed using SPR, and duplex melting temperatures were measured with UV–vis spectroscopy. In SPR, a high concentration of the secondary probe was injected over immobilized primary agents, and the dissociation of the hybridized complexes was monitored over 150 min (see Figures 3A, S22, and Table 2).
as §1
For ranking the off-rate (kd) of the secondary probes, we employed single-cycle kinetics (SCK) at 25 °C with a flow rate of 50 μL/min. […] Secondary PNA probes were injected at various concentrations, and dissociation was monitored for 10,000 s. To regenerate the chip surface, we used two 30 s injections of 10 mM glycine-HCl, pH 1.5.
as §2
Figure S22: Representative SPR sensorgrams of the dissociation phase of HP16 (9-mer), HP20 (8-mer), HP21 (7-mer) and HP19 […]
After injection with the secondary probe
(120 nM of HP16 and HP20 or 362 nM of HP21 and HP19) the dissociation of the formed complex was followed for 150 minutes. All experiments were done in duplicates, and the data presented is double-referenced (reference channel and buffer injection are subtracted).
(1 picture or pasted object on this page, not shown here)

With `NC(=O)[C@H](Cc1ccc(O)cc1)NC(=O)[C@H](CCC(=O)O)NC(=O)[C@H](CCC(=O)O)NC(=O)CN(CCNC(=O)CN(CCNC(=O)CN(CCNC(=O)CN(CCNC(=O)CN(CCNC(=O)CN(CCNC(=O)CN(CCNC(=O)CN(CCNC(=O)CN(CCNC(=O)[C@H](CO)NC(=O)[C@H](CO)NC(=O)COCCOCCNC(=O)CN1CCN(CC(=O)O)CCN(CC(=O)O)CCN(CC(=O)O)CC1)C(=O)Cn1cnc2c(N)ncnc21)C(=O)Cn1cnc2c(N)ncnc21)C(=O)Cn1ccc(N)nc1=O)C(=O)Cn1cnc2c(N)ncnc21)C(=O)Cn1ccc(N)nc1=O)C(=O)Cn1ccc(N)nc1=O)C(=O)Cn1cnc2c(N)ncnc21)C(=O)Cn1cnc2c(=O)[nH]c(N)nc21)C(=O)Cn1cnc2c(=O)[nH]c(N)nc21` [[^177Lu]Lu-HP16, metal not drawn], the tumor-associated activity in the data set with SKOV-3 xenografts was found to be 1.91 ± 0.831 %ID/g.

The term Kd denotes the constant that tells how readily two partners part at equilibrium. The low end stands for a tighter complex, the high end for a looser complex. As for “DOTA-AEEA-SS-aacaccagg-EEY-NH2 [HP16, 9-mer secondary PNA probe with DOTA]”, the ka with Z-HP9 (primary probe HP9 (Z-HP9 immobilized), 25 °C, 1.4-70 nM, 1:1 model, duplicates) is 1.8 × 10^5 M^–1 s^–1; with Z-HP9 (primary probe HP9, 37 °C) it was 2.9 × 10^5 M^–1 s^–1. Besides, the dissociation constant Kd stood at 0.27 nM on Z-HP9 (primary probe HP9, 25 °C) and 0.39 nM on Z-HP9 (primary probe HP9, 37 °C). The kd on Z-HP9 (primary probe HP9, 25 °C) was 4.8 × 10^–5 s^–1; on Z-HP9 (primary probe HP9, 37 °C), 1.1 × 10^–4 s^–1; on Z-HP15, 1.2 × 10^–5 s^–1.
